Assay results taken from BigSolDB 2.1.

CC(C)C[C@H](CN)CC(=O)O
solubility (mole fraction)
Conditions	in acetonitrile	in ethanol	in ethyl acetate	in isobutanol	in isopropanol	in methanol	in n-butanol	in n-propanol
278.15 K	0.000572	0.00115	0.00164	0.00126	9.1e-05	0.00112	0.00093	0.00109
283.15 K	0.000624	0.00149	0.00195	0.00136	0.000125	0.00153	0.00152	0.00144
288.15 K	0.000695	0.00188	0.00237	0.00146	0.000163	0.00198	0.00213	0.00185
293.15 K	0.00076	0.00235	0.00271	0.00159	0.000214	0.00242	0.00282	0.00241
298.15 K	0.000821	0.00272	0.00331	0.00173	0.000253	0.00273	0.00354	0.00277
303.15 K	0.000885	0.00321	0.00374	0.00184	0.000281	0.0033	0.00416	0.0032
308.15 K	0.000931	0.00369	0.00429	0.00194	0.000314	0.00399	0.00487	0.00368
313.15 K	0.000988	0.00424	0.00488	0.002	0.000362	0.00465	0.00551	0.00412
318.15 K	0.00106	0.00501	0.00547	0.00209	0.000419	0.00542	0.00619	0.00466
323.15 K	0.00113	0.00575	0.00589	0.00219	0.000461	0.00602	0.00677	0.00501
328.15 K	0.00118	0.00634	0.00631	0.00226	0.000513	0.00671	0.00731	0.00542
333.15 K	0.00123	0.00711	0.00674	0.00234	0.000585	0.00753	0.00793	0.00603
